For one assay, the system named is Colo205 tumor cells. The experiment in a line: Cell growth inhibition assay (CellTiter-Glo), Colo205. Type of assay: cell-based, Human. To be noted: Homo sapiens, COLO 205, 72 h; 3 days incubation. The procedure: (§1) Human breast tumor cells (BT474) were cultured in RPMI (Mediatech […]), containing 10% FBS (JRH Biosciences 12176) and 1% penicillin-streptomycin (Invitrogen 15140). Human head and neck tumor cells (HN5) were cultured in high glucose DMEM (Mediatech 50-013-PB) containing 10% FBS and 1% penicillin-streptomycin. Human colon tumor cells (Colo205) were cultured in RPMI (Mediatech 50-020-PB) containing 10% FBS and 1% penicillin-streptomycin. Human melanoma cancer cells (SK-MEL-28) were cultured in EMEM with nonessential amino acids (Mediatech 50-011-PB) containing 10% FBS, 1% sodium pyruvate (JT Baker 3354-04), and 1% penicillin-streptomycin. Human melanoma cancer cells (A375P F11s) were cultured in RPMI (Mediatech 50-020-PB) containing 10% FBS, 1% sodium pyruvate, and 1% penicillin-streptomycin. Human colon cancer cells (HT-29) were cultured in high glucose DMEM (Mediatech 50-013-PB) containing 10% FBS and 1% penicillin-streptomycin. Human melanoma cancer cells (SK-MEL-3) were cultured in McCoy's 5A (50-025-PB) containing 15% FBS, and 1% penicillin-streptomycin. All cell lines were maintained at 37° C. in a humidified 5% CO2, 95% air incubator. Cells were harvested using trypsin/EDTA (Invitrogen 25200), counted using a haemocytometer, and plated. For 96-well assays (using white full-area NUNC plates cat. #136102), cells were plated in 105 μL at the following densities (cells/well): HNS, 500; Colo 205, 500; SK-MEL-28, 500; A375P F11s, 500; HT-29, 500; SK-MEL-3, 500; and BT474, 3000. For 384-well assays (white full-area NUNC plates, cat. #781080), cells were plated in 48 μL at the following densities (cells/well): HNS, 500; Colo205, 500; SK-MEL-28, 500; A375P F11s, 500; HT-29, 500; SK-MEL-3, 500; and BT474, 2000.
(§2) The next day, compounds were diluted as follow: For 96-well assays, 13.5 μL of compound in DMSO were diluted using nine (9) serial 1:3 dilutions of 4.5 μL in 9 of DMSO. Medium (270 μL/well of RPMI with 10% FBS and 1% penicillin-streptomycin) was added to the plates. Aliquots (7 μL) were added to cells in the final assay giving a final DMSO concentration of 0.2%. For 384-well assays, 15 μL of compound in DMSO were diluted using nine (9) serial 1:3 dilutions of 5 μL in 10 μL of DMSO, followed by a further dilution of 5 μL of compound with 95 μL of medium, of which 2 μL were added to cells in the final assay giving a final DMSO concentration of 0.2%. Cells were incubated at 37° C., 5% CO2 for 3 days.
(§3) Total ATP was measured (as a surrogate estimate of cell number) using CellTiter-Glo® reagent (Promega G7571). Briefly, plates were removed from the incubator and allowed to equilibrate to room temperature for 30 minutes. CellTiter-Glo® (25 μL or 55 μL for 384-well or 96-well assays, respectively) reagent was added to each well and plates were shaken on an orbital plate shaker for 2 minutes. Plates were incubated without shaking for a further 30 minutes and read on an LJL Analyst GT reader in luminometer mode with an integration time of 0.5 seconds per well. Percent inhibition of cell growth was calculated relative to DMSO vehicle-treated control wells. Concentration of compound required to give 50% inhibition of vehicle-treated control cell growth (IC50) was interpolated using a 4-parameter fit for determining IC50 using the following equation: Y=A +((B−A)/(1+((C/X)̂D))) where […].
(ATP-based viability assays read luminescence as a measure of living cells.)

For a further assay, the target named is T1, EGFR (Homo sapiens, UniProt P00533).
T1 construct: made in house; host or cells: baculovirus expression system
T1 sequence (P00533 25-1210): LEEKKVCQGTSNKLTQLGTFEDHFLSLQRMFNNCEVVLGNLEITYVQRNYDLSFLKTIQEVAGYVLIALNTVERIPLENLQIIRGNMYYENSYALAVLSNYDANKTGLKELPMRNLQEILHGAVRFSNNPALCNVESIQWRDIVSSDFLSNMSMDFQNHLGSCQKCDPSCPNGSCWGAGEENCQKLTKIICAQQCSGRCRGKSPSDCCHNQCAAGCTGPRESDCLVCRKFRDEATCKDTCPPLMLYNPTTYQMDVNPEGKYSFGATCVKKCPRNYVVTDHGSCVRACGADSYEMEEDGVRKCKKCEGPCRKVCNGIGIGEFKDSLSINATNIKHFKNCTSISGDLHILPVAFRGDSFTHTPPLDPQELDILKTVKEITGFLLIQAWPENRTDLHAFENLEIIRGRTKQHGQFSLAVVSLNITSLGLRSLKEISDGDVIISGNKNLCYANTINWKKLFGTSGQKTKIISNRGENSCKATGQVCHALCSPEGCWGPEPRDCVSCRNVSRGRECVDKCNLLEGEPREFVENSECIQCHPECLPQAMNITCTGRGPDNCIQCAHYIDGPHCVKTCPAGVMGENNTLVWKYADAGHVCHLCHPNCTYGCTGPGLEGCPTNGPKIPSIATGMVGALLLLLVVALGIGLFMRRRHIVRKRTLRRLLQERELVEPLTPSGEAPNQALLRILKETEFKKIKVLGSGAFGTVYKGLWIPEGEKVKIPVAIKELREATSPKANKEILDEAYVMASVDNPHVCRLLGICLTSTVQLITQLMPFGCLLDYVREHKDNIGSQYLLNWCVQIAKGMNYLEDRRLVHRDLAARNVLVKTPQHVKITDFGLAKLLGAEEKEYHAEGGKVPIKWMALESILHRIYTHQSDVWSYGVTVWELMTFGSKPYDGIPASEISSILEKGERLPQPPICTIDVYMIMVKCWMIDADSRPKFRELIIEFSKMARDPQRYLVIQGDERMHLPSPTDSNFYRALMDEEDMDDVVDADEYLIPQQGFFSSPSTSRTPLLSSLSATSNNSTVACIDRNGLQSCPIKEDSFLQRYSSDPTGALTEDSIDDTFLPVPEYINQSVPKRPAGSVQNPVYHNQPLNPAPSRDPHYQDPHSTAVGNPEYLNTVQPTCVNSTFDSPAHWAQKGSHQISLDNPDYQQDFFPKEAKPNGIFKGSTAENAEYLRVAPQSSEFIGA
In words: EGFR substrate phosphorylation assay (HTRF). Format: biochemical. The procedure: (§4) Compounds of the present invention were tested for EGFR and ErbB-2 protein tyrosine kinase inhibitory activity in substrate phosphorylation assays using enzymes purified from a baculovirus expression system. Reagent production was conducted essentially as described in Brignola, P. S., et al, (2002) J. Biol. Chem. 277(2):1576-1585.
(§5) The method measures the ability of the isolated enzyme to catalyse the transfer of the gamma-phosphate from ATP onto the tyrosine residue of a biotinylated synthetic peptide referenced “Peptide C” in Brignola, P. S., et al, (2002) J. Biol. Chem. 277(2):1576-1585. The extent of tyrosine phosphorylation was measured using an anti-phosphotyrosine antibody, and quantified by homogenous time-resolved fluorescence (HTRF).
(§6) Reactions were performed in black 384-well polystyrene flat-bottom plates in a final volume of 20 μL. Assays were performed by adding 10 μL of each of the following solutions, Substrate Mix and Enzyme Mix: The Substrate Mix contained 100 mM 3-[N-morpholino]propanesulfonic acid (MOPS) (pH 7.5), 2 mM MnCl2, 20 μM ATP, 0.01% Tween-20, 0.1 mg/mL (BSA), 0.8 uM peptide substrate, and 1 mM dithiothreitol. The Enzyme Mix contained 100 mM MOPS (pH7.5); 0.01% Tween-20; 0.1 mg/mL BSA, and either 0.8 nM EGFR, 10 nM ErbB2, or 1 nM ErbB4. The Enzyme Mix was added to the compound plates and the plates were incubated at 20° C. for 1 hr. The reactions were then started by adding the Substrate Mix.
(§7) After initiating the reaction with the method described above, the reactions were allowed to proceed for 90 minutes at 20° C. The reactions were then terminated by the addition of 20 μL 100 mM EDTA to each well. 40 μL/well of HTRF detection mix were added to the assay plates. The final concentrations of the detection reagents were: 100 mM HEPES (pH7.5), 0.1 mg/mL BSA, 15 nM streptavidin-labeled allophycocyanin (PerkinElmer), and 1 nM europium-labeled anti-phosphotyrosine antibody (Perkin Elmer). Assay plates were left unsealed and were counted in a Wallac Multilabel Counter 1420 (PerkinElmer).
(§8) Compounds under analysis were dissolved in dimethylsulfoxide (DMSO) to 1.0 mM and serially diluted 1 to 3 with DMSO through twelve dilutions. 1 μL of each concentration was transferred to the corresponding well of an assay plate. This creates a final compound concentration range from 0.00027 to 47.6 μM.
(§9) The data for dose responses were plotted as % Inhibition calculated with the data reduction formula 100*(1-(U1−C2)/(C1−C2)) versus concentration of compound where U1 is the unknown value, C1 is the average control value obtained for 4.76% DMSO, and C2 is the average control value obtained for 0.035 M EDTA. Data were fitted with a curve described by:
(§10) where Vmax is the upper asymptote, Y2 is the Y intercept, and K is the IC50. The results for each compound were recorded as pIC50s, calculated as follows: […]
A general note: Time-resolved FRET reads energy transfer from a long-lived donor to a nearby acceptor.

Another assay addresses B-Raf (Homo sapiens, UniProt P15056). In words: B-Raf Accelerated MEK ATPase assay (BRAMA), Method A or B. Type of assay: biochemical. To be noted: Method B: final MEK 150 nM, single end point read. The procedure: Compounds of the present invention were tested for B-Raf protein serine kinase inhibitory activity in a B-Raf Accelerated MEK ATPase assay (BRAMA). The BRAMA assay is a high sensitivity assay which measures an intrinsic MEK-mediated ATP hydrolysis uncoupled from downstream ERK phosphorylation by coupling the formation of ADP to NADH oxidation through the enzymes pyruvate kinase and lactate dehydrogenase. When ADP production is initiated by addition of catalytic amounts of an activated Raf enzyme and non-phosphorylated MEK, one observes robust ADP production concomitant with Raf-mediated phosphorylation of MEK.
Method A: Specific details of the assay are disclosed in: C. Rominger, M. Schaber, E. May. Assay for B-Raf Activity Based on Intrinsic MEK ATPase Activity. Statutory Invention Registration 11/084,993 (March, 2005). Method B: The method is the same as method A, but includes the following changes: 1) the assay was performed with a final MEK concentration of 150 nM and 2) the assay was read as single end point instead of a kinetic read.

A further assay addresses T2, ErbB2 (Homo sapiens, UniProt P04626).
T2 construct: made in house; host or cells: baculovirus expression system
In words: ErbB-2 substrate phosphorylation assay (HTRF). Format: biochemical. The procedure:
as §4, §5, §6, §7, §8, §9, §10

The subject of a further assay is SK-MEL-28 tumor cells. The experiment in a line: Cell growth inhibition assay (CellTiter-Glo), SK-MEL-28. Format: cell-based, Human. To be noted: Homo sapiens, SK-MEL-28, 72 h; 3 days incubation. The procedure:
as §1, §2, §3

From patent US20110319392A1, “Thiazole Sulfonamide And Oxazole Sulfonamide Kinase Inhibitors” (priority 2009, published 2011) come the findings set out here.

Molecules are shown by their SMILES.

B-Raf, sequence (P15056 whole entry): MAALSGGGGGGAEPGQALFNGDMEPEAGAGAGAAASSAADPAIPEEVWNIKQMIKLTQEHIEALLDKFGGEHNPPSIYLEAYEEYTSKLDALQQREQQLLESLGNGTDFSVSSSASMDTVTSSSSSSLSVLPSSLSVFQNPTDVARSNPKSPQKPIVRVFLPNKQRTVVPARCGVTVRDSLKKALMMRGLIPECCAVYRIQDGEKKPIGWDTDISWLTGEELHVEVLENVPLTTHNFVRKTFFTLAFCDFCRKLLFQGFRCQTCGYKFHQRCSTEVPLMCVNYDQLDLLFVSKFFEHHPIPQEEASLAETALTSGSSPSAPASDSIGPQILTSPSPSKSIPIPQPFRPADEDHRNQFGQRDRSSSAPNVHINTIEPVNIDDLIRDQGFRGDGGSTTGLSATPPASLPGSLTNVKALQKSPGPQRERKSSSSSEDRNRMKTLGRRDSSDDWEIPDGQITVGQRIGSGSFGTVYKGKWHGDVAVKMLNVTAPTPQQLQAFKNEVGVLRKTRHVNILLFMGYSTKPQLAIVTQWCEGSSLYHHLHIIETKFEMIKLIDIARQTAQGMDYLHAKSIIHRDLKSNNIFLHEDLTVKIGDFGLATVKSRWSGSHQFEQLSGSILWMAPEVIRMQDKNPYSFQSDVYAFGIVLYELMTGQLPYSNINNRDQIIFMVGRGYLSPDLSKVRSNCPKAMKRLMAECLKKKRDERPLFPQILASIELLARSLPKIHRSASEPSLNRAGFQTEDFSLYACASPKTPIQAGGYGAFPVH
T2 sequence (P04626 23-1255): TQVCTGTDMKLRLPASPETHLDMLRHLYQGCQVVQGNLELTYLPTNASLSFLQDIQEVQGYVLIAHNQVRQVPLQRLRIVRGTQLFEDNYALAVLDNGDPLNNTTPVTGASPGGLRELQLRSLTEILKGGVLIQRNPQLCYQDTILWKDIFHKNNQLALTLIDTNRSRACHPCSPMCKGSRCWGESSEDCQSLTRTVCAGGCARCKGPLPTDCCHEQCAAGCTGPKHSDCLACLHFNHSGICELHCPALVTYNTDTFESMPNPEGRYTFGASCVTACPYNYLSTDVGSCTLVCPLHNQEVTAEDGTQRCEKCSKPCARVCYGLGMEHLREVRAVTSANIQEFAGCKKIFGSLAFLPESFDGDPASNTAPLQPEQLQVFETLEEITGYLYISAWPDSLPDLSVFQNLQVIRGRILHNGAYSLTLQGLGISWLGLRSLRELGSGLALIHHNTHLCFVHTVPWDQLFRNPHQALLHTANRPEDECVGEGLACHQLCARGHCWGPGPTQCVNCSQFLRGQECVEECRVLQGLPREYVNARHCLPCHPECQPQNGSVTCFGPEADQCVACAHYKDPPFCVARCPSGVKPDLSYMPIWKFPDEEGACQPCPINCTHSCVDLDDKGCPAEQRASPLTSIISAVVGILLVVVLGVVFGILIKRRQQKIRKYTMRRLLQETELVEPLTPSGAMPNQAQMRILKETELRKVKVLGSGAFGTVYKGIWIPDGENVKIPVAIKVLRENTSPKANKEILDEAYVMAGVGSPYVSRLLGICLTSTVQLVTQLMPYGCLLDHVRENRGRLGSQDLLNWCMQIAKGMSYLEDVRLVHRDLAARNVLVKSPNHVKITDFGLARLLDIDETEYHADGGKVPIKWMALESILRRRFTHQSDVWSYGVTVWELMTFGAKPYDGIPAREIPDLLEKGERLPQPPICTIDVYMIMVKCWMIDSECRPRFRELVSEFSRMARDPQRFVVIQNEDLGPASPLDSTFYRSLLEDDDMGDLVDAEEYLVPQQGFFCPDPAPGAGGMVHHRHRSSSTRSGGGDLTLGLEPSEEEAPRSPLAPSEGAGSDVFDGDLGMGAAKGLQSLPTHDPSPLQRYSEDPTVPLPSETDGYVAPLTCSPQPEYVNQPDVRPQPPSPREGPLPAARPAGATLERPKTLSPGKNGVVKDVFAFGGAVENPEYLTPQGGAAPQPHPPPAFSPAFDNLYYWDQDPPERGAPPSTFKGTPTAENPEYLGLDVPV

Regarding `CC(C)c1nc(-c2cccc(NS(=O)(=O)c3c(F)cccc3F)c2)c(-c2ccnc(Nc3ccc(N4CCN(CCS(C)(=O)=O)CC4)cc3C(F)(F)F)n2)s1` [Example 176], the IC50 in the assay with Colo205 tumor cells is < 100 nM; at EGFR it was > 1000 nM; on B-Raf, < 100 nM; at ErbB2 it was > 1000 nM; in the assay with SK-MEL-28 tumor cells, < 100 nM.
Take `Cc1ccc(-c2nc(C(C)C)sc2-c2ccnc(Nc3ccc(N4CCOCC4)nc3)n2)cc1NS(=O)(=O)c1c(F)cccc1F` [Example 111]: the half-maximal inhibitory concentration (IC50) in the assay on Colo205 tumor cells was > 1000 nM; on EGFR, 100 to 1000 nM; against B-Raf, 100 to 1000 nM; on ErbB2, 100 to 1000 nM; in the assay with SK-MEL-28 tumor cells, > 1000 nM.
With `COc1cc(N2CCN(CCS(C)(=O)=O)CC2)c(C)cc1Nc1nccc(-c2sc(C(C)C)nc2-c2cccc(NS(=O)(=O)c3cccnc3)c2)n1` [Example 54], the concentration for half-maximal inhibition (IC50) in the assay on Colo205 tumor cells was < 100 nM; against EGFR, 100 to 1000 nM; against B-Raf, < 100 nM; against ErbB2 it was < 100 nM; in the assay with SK-MEL-28 tumor cells it was < 100 nM.
Regarding `CC(C)c1nc(-c2cccc(NS(=O)(=O)c3ccc(C(C)(C)C)cc3)c2)c(-c2ccnc(Nc3ccc(N4CCOCC4)nc3)n2)s1` [Example 142], the IC50 in the assay on Colo205 tumor cells is > 1000 nM; against EGFR, > 1000 nM; at B-Raf it was < 100 nM; at ErbB2 it was 100 to 1000 nM; in the assay on SK-MEL-28 tumor cells, > 1000 nM.
Regarding `CCc1nc(-c2ccc(F)c(NS(=O)(=O)c3ccccc3)c2)c(-c2ccnc(Nc3ccc(N4CCN(CCS(C)(=O)=O)CC4)c(F)c3)n2)s1` [Example 67], the IC50 was 100 to 1000 nM with Colo205 tumor cells; > 1000 nM against EGFR; 100 to 1000 nM against B-Raf; 100 to 1000 nM at ErbB2; 100 to 1000 nM with SK-MEL-28 tumor cells.
As for `COc1cc(N2CCN(CCS(C)(=O)=O)CC2)c(C)cc1Nc1nccc(-c2sc(C3CC3)nc2-c2cccc(NS(=O)(=O)c3c(F)cccc3F)c2)n1` [Example 175], the IC50 in the assay on Colo205 tumor cells was < 100 nM; against EGFR it was 100 to 1000 nM; on B-Raf it was 100 to 1000 nM; against ErbB2 it was < 100 nM; in the assay with SK-MEL-28 tumor cells, 100 to 1000 nM.
Consider `COc1cc(N2CCN(CCS(C)(=O)=O)CC2)c(C)cc1Nc1nccc(-c2sc(C(C)C)nc2-c2cccc(NS(=O)(=O)c3cn(C)cn3)c2)n1` [Example 43], for which the IC50 in the assay on Colo205 tumor cells is > 1000 nM; on EGFR, > 1000 nM; on B-Raf it was 100 to 1000 nM; against ErbB2 it was 100 to 1000 nM; in the assay on SK-MEL-28 tumor cells, > 1000 nM.
As to `COc1c(Nc2nccc(-c3sc(C(C)C)nc3-c3cccc(NS(=O)(=O)c4c(F)cccc4F)c3)n2)ccc(N2CCN(CCS(C)(=O)=O)CC2)c1C` [Example 90], the IC50 is 100 to 1000 nM with Colo205 tumor cells; > 1000 nM at EGFR; < 100 nM at B-Raf; > 1000 nM against ErbB2; 100 to 1000 nM with SK-MEL-28 tumor cells.
Turning to `COc1cc(OCCN2CCOCC2)c(C)cc1Nc1nccc(-c2sc(C(C)C)nc2-c2cccc(NS(=O)(=O)c3c(F)cccc3F)c2F)n1` [Example 171], the IC50 in the assay on Colo205 tumor cells is < 100 nM; against EGFR, 100 to 1000 nM; on B-Raf, < 100 nM; against ErbB2, 100 to 1000 nM; in the assay on SK-MEL-28 tumor cells, < 100 nM.
Regarding `CCc1nc(-c2cccc(CNS(=O)(=O)c3ccccc3)c2)c(-c2ccnc(Nc3ccc(N4CCN(CCS(C)(=O)=O)CC4)c(F)c3)n2)s1` [Example 35], the IC50 is > 1000 nM in the assay on Colo205 tumor cells; 100 to 1000 nM against EGFR; 100 to 1000 nM against B-Raf; 100 to 1000 nM against ErbB2; > 1000 nM in the assay with SK-MEL-28 tumor cells.
Consider `CC(C)c1nc(-c2cccc(NS(=O)(=O)c3cccc(OC(F)F)c3)c2)c(-c2ccnc(Nc3ccc(N4CCOCC4)nc3)n2)s1` [Example 141], for which the IC50 was 100 to 1000 nM in the assay on Colo205 tumor cells; > 1000 nM against EGFR; 100 to 1000 nM against B-Raf; 100 to 1000 nM against ErbB2; 100 to 1000 nM in the assay on SK-MEL-28 tumor cells.
For `Nc1nc(-c2ccc(F)c(NS(=O)(=O)c3c(F)cccc3F)c2)c(-c2ccnc(Nc3ccc(N4CCOCC4)nc3)n2)s1` [Example 64], the concentration for half-maximal inhibition (IC50) was > 1000 nM in the assay with Colo205 tumor cells; 100 to 1000 nM at EGFR; < 100 nM against B-Raf; < 100 nM against ErbB2; > 1000 nM in the assay on SK-MEL-28 tumor cells.
With `COc1cc(N2CCN(CCS(C)(=O)=O)CC2)c(C)cc1Nc1nccc(-c2sc(C(C)C)nc2-c2cncc(NS(=O)(=O)c3c(F)cccc3F)c2)n1` [Example 48], the IC50 with Colo205 tumor cells was < 100 nM; against EGFR, > 1000 nM; at B-Raf, 100 to 1000 nM; at ErbB2, < 100 nM; in the assay with SK-MEL-28 tumor cells it was 100 to 1000 nM.

As a reminder, the IC50 is the concentration at which inhibition is half-maximal. Lower therefore signals greater potency.
